In patent US10844023B2 (Washington University, priority 2017, dated 2020):
* marks the point of attachment. FITC = O=C1OC2(c3ccc(O)cc3Oc3cc(O)ccc32)c2ccc(NC(=S)*)cc21

Experiments:
[1] = Solubility of library compounds in DMSO; type: physicochemical; conditions: stock concentration of 10 mM in DMSO
Protocol: A pharmacophore model was generated based on the interactions of HR1 and HR2 domains in the calculated structural model of Mfn2 in the closed conformation. The key features included hydrophobic interactions involving Mfn2 HR1: Val372 and Met376, and aromatic interactions and hydrogen bonding involving Mfn2 HR1 His380. […] A library comprising ˜14 million commercially available compounds was prepared in silico and evaluated using PHASE to fit these criteria. Top ranked hits were clustered, and filtered based on pharmacological properties using Qikprop. The top 55 (see TABLE 4) commercially available small molecules conforming to the model were selected for functional screening and purchased in 1 mg aliquots. Each compound was dissolved to a stock concentration of 10 mM in DMSO and applied to Mfn2 null MEFs overnight at a final concentration of […]. Eleven of the library members were not soluble in DMSO at the required concentration. The 44 fully soluble compounds were screened in groups of 6 at a time for cytotoxicity (calcein AM/ethidium homodimer staining; ThermoFisher LIVE/DEAD Assay cat #L3224) and fusogenicity (increase in mitochondrial aspect ratio; MitoTracker Orange staining) compared to cells treated overnight with […] of the parent HR1 367-384 mitofusin agonist peptide (positive control) or vehicle (DMSO). Images were acquired by confocal microscopy. Each compound was scored for fusogenicity (see e.g., FIG. 24A) and % cell death (see e.g., FIG. 24B). Pharmacophore model fit generally correlated with actual fusogenic activity (Pearson correlation coefficient r=0.214; see e.g., FIG. 24A, inset; TABLE 4).

[2] = Human liver microsome stability assay; type: in vitro ADME; conditions: human liver microsomes (FIG. 49)
Protocol: FIG. 49 is a series of structures and a graph showing dose-response and human liver microsomal stability data for fusogenic compounds from FIG. 22. […] T1/2 values are from human liver microsome stability assay.
(§1) Plasma protein binding was measured using equilibrium dialysis; % bound=(1-[free compound in dialysate]/[total compound in retentate])×100. Plasma stability of […] compound in clarified freeze-thawed plasma was assessed by LC-MS/MS of supernatants after protein precipitation; 120 min data are reported for studies including 0, 10, 30, 60, and 120 min. Microsome stability of […] compound in liver microsomes (0.5 mg/ml) after 0, 5, 10, 20, 30, 60 min. incubation was assessed by LC/MS/MS of reaction extracts.

Mfn2 null MEFs = experiment: Mitochondrial elongation (aspect ratio) fusogenicity assay; type: cell-based, mouse; design: % long compare to B: dose or concentration left out as unconfirmed; conditions: for Fusogenic activity: mitochondrial elongation / fusion; for % long compare to B: mitochondrial elongation relative to Cpd B (B01 = 100), compound overnight as printed (FIG. 48); for % long compare to B / Aspect ratio (MEAN ± SEM): Mfn2 null MEFs; for Aspect ratio (MEAN ± SEM): overnight, treatment with 1 μM compound (footnote); for Fusogenicity Rank: rank order of aspect ratio among 44 soluble library compounds
[3] = Plasma protein binding (equilibrium dialysis); type: in vitro ADME
Protocol: as §1

[4] = Liver microsome stability; type: in vitro ADME
Protocol: as §1

MFN2 HR2 = biological target: T1, MFN2 HR2 (Homo sapiens, UniProt O95140); experiment: HR1 peptide-HR2 target binding assay; conditions: FITC minipeptide 374-384 at HR2 binding site
T1 construct: host or cells: synthetic peptide (note in the listing); immobilised on Ni-NTA resin
T1 sequence (O95140 with tags, fused parts or gaps limits assumed): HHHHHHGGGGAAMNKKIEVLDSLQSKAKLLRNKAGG
From the text: The Mfn-derived fusion-promoting and -inhibiting mini-peptides (simulated to obtain the chemical Mfn agonists in TABLE 1 and TABLE 2) were modified from amino acid heptad repeats (HR) in the HR1 domain and predicted to interact with their counterparts in the carboxyl terminus HR2 domain within the Mfn stalk region (see e.g., FIG. 1, top panel). A high-throughput binding assay was designed whereby the target HR2 peptide sequences, modified to include amino terminal 6×His tags and Gly linkers, were bonded to Ni-chelate resin (20 μg/ml) and used as immobilized “receptor” for amino-FITC-tagged Mfn2 374-384 (agonist ligand) in which the Ser analogous to Ser378 was replaced with Asp to confer the negative charge essential for activity. For antagonist studies the ligand was amino-FITC-tagged Mfn2 406-418. The FITC peptide ligands are suspended at 1 mM in 30% DMSO, 70% water (to minimize spontaneous aggregation) and diluted into binding buffer (de-ionized water) to a final concentration of 25 μM in the presence or absence of competing compound. Dose-dependent loss of resin-bound FITC signal (485 nm excitation/538 nm emission) measured in a 96 well spectrofluorometer represents binding of compound to its HR2 target (see e.g., FIG. 10, FIG. 11). Either the ligand peptide or the receptor peptide can be modified to represent mutations, variations, or posttranslational modifications of Mfn2. […]
Target HR2 peptide sequence modified to include amino terminal 6×His tags and Gly linkers, were bonded to Ni-NTA resin (4.4 μg/ml) (Quiagen) and used as immobilized “receptor” for amino-FITC-tagged Mfn2 374-384 (ligand) in which the Ser analogous to Ser378 was replaced with Asp to confer the negative charge essential for activity. […] Resin-bound FITC signal (485 nm excitation/538 nm emission) measured in a 96 well spectrofluorometer (Spectramax M5e, Molecular Devices) represented binding to HR2 target. Competition binding isotherms were plotted and IC50 values calculated using Prism 7 (GraphPad).

Cc1cc(C)nc(SCC(C)Cn2c(N3CCC(C(N)=O)CC3)nc3c2c(=O)[nH]c(=O)n3C)n1 (stereo not drawn) [1-(7-{3-[(4,6-dimethylpyrimidin-2-yl)sulfanyl]-2-methylpropyl}-3-methyl-2,6-dioxo-2,3,6,7-tetrahydro-1H-purin-8-yl)piperidine-4-carboxamide]
Solubility in DMSO at required concentration [1]: Insol- uble

Cn1c(SCC(=O)Nc2sc3c(c2C(N)=O)CCC3)nnc1-c1ccccc1 [1-B1, 2-{2-[(4-methyl-5-phenyl-4H-1,2,4-triazol-3-yl]sulfanyl]acetamido}-4H,5H,6H-cyclopenta[b]thiophene-3-carboxamide]
Resistance to liver microsomal degradation vs Cpd B [2]: greater resistance to liver microsomal degradation | Fusogenic activity (Mfn2 null MEFs): more potent | % long compare to B (Mfn2 null MEFs): 107%

CCC(Sc1nc2cc(OC)c(OC)cc2c2nc(CCn3nc(C)cc3C)nn12)C(=O)Nc1ccc(F)cc1 (stereo not drawn) [2-({2-[2-(3,5-dimethyl-1H-pyrazol-1-yl)ethyl]-8,9-dimethoxy-[1,2,4]triazolo[1,5-c]quinazolin-5-yl]sulfanyl)-N-(4-fluorophenyl)butanamide]
Solubility in DMSO at required concentration [1]: Insol- uble

CC(=O)NC12CC3CC(C1)CC(C(=O)NCCSCc1ccc(C)cc1)(C3)C2 [3-acetamido-N-(2-{[(4-methylphenyl)methyl]sulfanyl}ethyl)adamantane-1-carboxamide]
Solubility in DMSO at required concentration [1]: Insol- uble

Cc1ccc(C(=O)C(C)Sc2nnc3c(=O)n(-c4ccccc4)ccn23)cc1C (stereo not drawn) [3-{[1-(3,4-dimethylphenyl)-1-oxopropan-2-yl]sulfanyl}-7-phenyl-7H,8H-[1,2,4]triazolo[4,3-a]pyrazin-8-one]
Solubility in DMSO at required concentration [1]: Insol- uble

Cc1ccc(C(=O)C(C)Sc2nnc3c(=O)n(-c4ccc(Br)cc4)ccn23)cc1C (stereo not drawn) [7-(4-bromophenyl)-3-{[1-(3,4-dimethylphenyl)-1-oxopropan-2-yl]sulfanyl}-7H,8H-[1,2,4]triazolo[4,3-a]pyrazin-8-one]
Solubility in DMSO at required concentration [1]: Insol- uble

COc1cc(Cl)c(C)cc1N1C(=O)[C@@H]2C[C@H]1CN2Cc1cccn1-c1ncccn1 [(1S,4S)-2-(4-chloro-2-methoxy-5-methylphenyl)-5-{[1-(pyrimidin-2-yl)-1H-pyrrol-2-yl]methyl}-2,5-diazabicyclo[2.2.1]heptan-3-one]
Solubility in DMSO at required concentration [1]: Insol- uble

Cn1c(CCCNC(=O)NC2CCOCC2)nnc1C1CC1 [Mitolityn-6, 1-(3-(5-cyclopropyl-4-methyl-4H-1,2,4-triazol-3-yl)propyl)-3-(tetrahydro-2H-pyran-4-yl)urea]
Fusogenic activity (Mfn2 null MEFs): highest potency | Plasma protein binding [3]: low plasma protein binding | Liver microsome stability [4]: stability in the liver microsome assay

Cc1ccc(CSCCNC(=O)C2CCN(c3ccc4nnc(C(F)(F)F)n4n3)CC2)cc1 [N-(2-{[(4-methylphenyl)methyl]sulfanyl}ethyl)-1-[3-(trifluoromethyl)-[1,2,4]triazolo[4,3-b]pyridazin-6-yl]piperidine-4-carboxamide]
Solubility in DMSO at required concentration [1]: Insol- uble

Cc1cc(NC(=O)C(C)SCC(=O)Nc2ccc(NC(C)c3ccccc3)cc2)no1 (stereo not drawn) [N-(5-methyl-1,2-oxazol-3-yl)-2-{[({4-[(1-phenylethyl)amino]phenyl}carbamoyl)methyl]sulfanyl}propanamide]
Solubility in DMSO at required concentration [1]: Insol- uble

CC(Sc1nc(C2CC2)nc2c1c(=O)[nH]c(=O)n2C1CC1)C(=O)NCC1CCCCC1 (stereo not drawn) [N-(cyclohexylmethyl)-2-({2,8-dicyclopropyl-5,7-dioxo-5H,6H,7H,8H-pyrimido[4,5-d][1,3]diazin-4-yl}sulfanyl)propanamide]
Solubility in DMSO at required concentration [1]: Insol- uble

Cc1ccc(SC(C)C(=O)Nc2ccc(NS(=O)(=O)c3ccc4c(c3)OCCCO4)cc2)cc1 (stereo not drawn) [N-[4-(3,4-dihydro-2H-1,5-benzodioxepine-7-sulfonamido)phenyl]-2-[(4-methylphenyl)sulfanyl]propanamide]
Solubility in DMSO at required concentration [1]: Insol- uble

CCc1nnc(SC(CC)C(=O)N(CC)c2cccc(C)c2)c2cc3occc3n12 (stereo not drawn) [N-ethyl-2-({12-ethyl-5-oxa-1,10,11-triazatricyclo[6.4.0.0^2,6]dodeca-2(6),3,7,9,11-pentaen-9-yl}sulfanyl)-N-(3-methylphenyl)butanamide]
Solubility in DMSO at required concentration [1]: Insol- uble

CCOc1ccccc1NC(=O)CSCc1cc(=O)c2ccc(C)c(C)c2[nH]1 [drawing 248, 2-{[(7,8-dimethyl-4-oxo-1,4-dihydroquinolin-2-yl)methyl]sulfanyl}-N-(2-ethoxyphenyl)acetamide]
Aspect ratio (MEAN ± SEM) (Mfn2 null MEFs): 3.7 ± 0.6 | Fusogenicity Rank (Mfn2 null MEFs): 24

O=C(CSCC(=O)N1CCCc2ccccc21)Nc1ccccc1 [drawing 249, 2-{[2-oxo-2-(1,2,3,4-tetrahydroquinolin-1-yl)ethyl]sulfanyl}-N-phenylacetamide]
Aspect ratio (MEAN ± SEM) (Mfn2 null MEFs): 2.4 ± 0.4 | Fusogenicity Rank (Mfn2 null MEFs): 44

Cc1ccc(NC(=O)CC2SC(NC(c3ccc(C(C)C)cc3)c3c(O)[nH]c(=O)[nH]c3=O)=NC2=O)c(C)c1 (stereo not drawn) [drawing 252, N-(2,4-dimethylphenyl)-2-(2-{[(6-hydroxy-2,4-dioxo-1,2,3,4-tetrahydropyrimidin-5-yl)[4-(propan-2-yl)phenyl]methyl]amino}-4-oxo-4,5-dihydro-1,3-thiazol-5-yl)acetamide]
Aspect ratio (MEAN ± SEM) (Mfn2 null MEFs): 3.1 ± 0.3 | Fusogenicity Rank (Mfn2 null MEFs): 35

O=C(NCCCCc1ccccc1)Nc1ccccc1 [pA, 3-phenyl-1-(4-phenylbutyl)urea]
% long compare to B (Mfn2 null MEFs): 59%

NC(=O)c1c(NC(=O)CCCc2ccccc2)sc2c1CCC2 [pB, 2-(4-phenylbutanamido)-4H,5H,6H-cyclopenta[b]thiophene-3-carboxamide]
% long compare to B (Mfn2 null MEFs): 6%

Ala^378 minipeptide: "(NH3) FITC-GGGG-AVRGIMDALHMAAR-GG (COOH) (FITC labeled Ala peptide) (SEQ ID NO: 28)" ({FITC}-GGGGAVRGIMDALHMAARGG-OH)
Binding to / competition at HR2 target (MFN2 HR2): did not

Ser^378 minipeptide: "(NH3) FITC-GGGG-AVRGIMDSLHMAAR-GG (COOH) (FITC labeled Ser peptide) (SEQ ID NO: 26)" ({FITC}-GGGGAVRGIMDSLHMAARGG-OH)
Binding to / competition at HR2 target (MFN2 HR2): did not
